Measurements reported in patent publication US5143916A, “Naphthylpiperazines useful as 5-HT1A receptor ligands” (Adir et Compagnie, priority 1989, dated 1992).

What was measured:
[1] = dog, in vivo; cited from earlier work
[2] = Antihypertensive activity: arterial blood pressure and heart rate in anesthetized mongrel dogs (i.v.); format: in vivo
Description: Mongrel dogs (male and female) are anesthetized with phenobarbital (30 mg/kg i.v.) and then placed in artificial respiration (Bird Mark VII respirator). Arterial blood pressure is measured by means of a catheter placed in the abdominal aorta via the femoral artery. This catheter is connected to a pressure cell (Statham® R23 D6) linked to a recorder.
Heart rate is measured by means of a Gould Biotach®.
Sympathetic nervous activity is recorded from the renal nerve by means of a silver electrode. The amplified signal is visualized on an oscilloscope (Tektronix 5115®) and then measured in μV by means of a Gould integrator.

5-HT1A receptors = conditions: European Journal of Pharmacology, (1988), 149, p. 213-223; cited from earlier work

O=C(NCCN1CCN(c2cccc3c2OC[C@H](CO)O3)CC1)c1ccc(F)cc1 (single isomer, unassigned) [Flesinoxan, (+) isomer]
Relative activity of flesinoxan isomers [1]: the more active isomer

O=C(NCCN1CCN(c2cccc3c2OC[C@H](CO)O3)CC1)c1ccc(F)cc1 (racemic) [Flesinoxan, racemic]
Effect on arterial blood pressure ([2]; 10 μg/kg i.v.): 0 mm/Hg | Effect on heart rate ([2]; 10 μg/kg i.v.): 0 Beats/min. | Effect on heart rate ([2]; 30 μg/kg i.v.): 0 Beats/min.

O=C(NCCN1CCN(c2cccc3c2OC[C@H](CO)O3)CC1)c1ccc(F)cc1 [flesinoxan]
5-HT1A receptor agonist activity, antihypertensive properties (5-HT1A receptors): antihypertensive properties due to its 5-HT1A receptor agonist activity
